Measurements taken from ChEMBL document CHEMBL3044746, “Molecular modeling and pharmacophore approach for structural requirements of some 2-substituted-1-naphthols derivatives as potent 5-lipoxygenase inhibitors” (Med Chem Res, 2013).
pIC50: −log10 of the molar value.

Target: T1, Polyunsaturated fatty acid 5-lipoxygenase (Rattus norvegicus, UniProt P12527)
T1 sequence (P12527 whole entry): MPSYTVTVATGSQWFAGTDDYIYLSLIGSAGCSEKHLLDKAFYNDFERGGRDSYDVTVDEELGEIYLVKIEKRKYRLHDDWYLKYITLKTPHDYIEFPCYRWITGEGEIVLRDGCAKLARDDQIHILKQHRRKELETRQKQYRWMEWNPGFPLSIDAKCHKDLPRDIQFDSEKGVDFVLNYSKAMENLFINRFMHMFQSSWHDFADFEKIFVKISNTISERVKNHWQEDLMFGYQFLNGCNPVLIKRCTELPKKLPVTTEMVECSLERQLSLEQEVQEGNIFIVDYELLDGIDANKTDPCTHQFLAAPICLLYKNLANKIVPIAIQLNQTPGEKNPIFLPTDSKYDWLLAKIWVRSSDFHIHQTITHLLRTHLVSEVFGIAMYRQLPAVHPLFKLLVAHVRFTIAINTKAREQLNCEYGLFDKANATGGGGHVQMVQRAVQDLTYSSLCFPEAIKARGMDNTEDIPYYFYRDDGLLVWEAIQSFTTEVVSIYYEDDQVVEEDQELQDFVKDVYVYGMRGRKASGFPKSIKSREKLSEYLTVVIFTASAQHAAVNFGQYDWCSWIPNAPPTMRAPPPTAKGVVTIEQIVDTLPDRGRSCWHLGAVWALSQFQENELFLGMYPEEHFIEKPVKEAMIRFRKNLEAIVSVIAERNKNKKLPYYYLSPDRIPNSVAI
Assay: Inhibition of 5-lipoxygenase in Rattus norvegicus Rat basophil leukemia cells (RBL) cells

pIC50 | Structure (SMILES)
7.24 | CCOc1ccccc1Cc1ccc2ccccc2c1O
6.80 | O=C(Oc1ccccc1)c1cc(Cc2ccccc2)c(O)c2ccccc12
6.74 | CCc1ccc2ccccc2c1O
6.80 | Oc1c(/C=C/c2ccccc2)ccc2ccccc12
